Results as given in US5527811A, “Isoquinolinyl compounds which are useful in treating cerebral vascular disorders” (Takeda Chemical Industries, Ltd., priority 1993, dated 1996).
pIC50: −log10 of the molar value. Where two headings read alike, the source gives them in different places.

Key:
[1] = molecular target: T1, substance P receptor from human lymphoblast cells (IM-9) (Homo sapiens, UniProt P25103); experiment: Radioligand receptor binding inhibitory assay using receptor from human lymphoblast cells (IM-9), 125I-BHSP; conditions: 25° C., 30 minutes, pH 7.4
T1 construct: The receptor was prepared from human lymphoblast cells (IM-9); endogenous in cells; host or cells: IM-9 human lymphoblast cells (washed membrane preparation)
T1 sequence (P25103 whole entry): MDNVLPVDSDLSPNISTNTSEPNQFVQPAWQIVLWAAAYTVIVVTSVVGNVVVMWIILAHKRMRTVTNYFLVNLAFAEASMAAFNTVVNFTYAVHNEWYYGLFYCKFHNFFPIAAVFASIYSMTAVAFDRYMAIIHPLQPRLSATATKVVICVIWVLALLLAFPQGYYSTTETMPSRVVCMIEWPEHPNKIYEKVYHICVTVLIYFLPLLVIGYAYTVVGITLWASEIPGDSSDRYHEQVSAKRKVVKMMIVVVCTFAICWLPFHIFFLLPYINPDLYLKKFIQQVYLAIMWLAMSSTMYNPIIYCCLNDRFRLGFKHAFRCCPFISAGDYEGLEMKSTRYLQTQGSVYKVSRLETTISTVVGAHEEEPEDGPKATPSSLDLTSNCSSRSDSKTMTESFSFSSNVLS
Method: Radioligand receptor binding inhibitory assay using receptor from human lymphoblast cells (IM-9)
The method of "A. Margaret et al. Molecular Pharmacology 42, 458 (1992)" was modified and used. The receptor was prepared from human lymphoblast cells (IM-9). IM-9 cells were grown in 175 cm^2 tissue culture flasks (100 ml z 10) at a density approximately 2×10^5 /ml of RPMI 1640 with L-glutamine, 10% (V/V) heat inactivated fetal calf serum, penicillin (100 u/ml), and streptomycin (100 μg/ml) at 37° C. in 5%CO2 /95% air for 3 days. IM-9 cells were obtained by centrifugation at 500 Xg for 5 minutes at 5° C. The pellet obtained was washed once with phosphate buffer (Flow Laboratories, CAT No. 28-103-05), homogenized using Polytron homogenizer (Kinematika, Germany) in 30 ml of 50 mM Tris-HCl buffer containing 120 mM NaCl, 5 mM KCl, 2 μg/ml phenylmethyl sufonyl fluoride, and 1 mM ethylenediamine tetra-acetic acid and then centrifuged at 40,000 Xg for 20 minutes. The residue was washed twice with 30 ml of buffer described above, and preserved frozen (-80° C.).
The above specimen was suspended in a reaction buffer (50 mM Tris-HCl buffer (pH 7.4), 0.02% bovine serum albumin, 1 mM phenylmethylsufonyl fluoride, 2 μg/ml chymostatin, 40 μg/ml bacitracin, 3 mM manganese chloride) at a protein concentration of 1.5 mg/ml and a 100 μl portion of the suspension was used in the reaction. After addition of the sample and 125I-BHSP (0.46 KBq), the reaction was conducted in 0.2 ml of reaction buffer at 25° C. for 30 minutes. The amount of nonspecific binding was determined by adding substance P at a final concentration of […]. After the reaction, using a cell harvester (290PHD, Cambridge Technology, Inc., England), rapid filtration was carried out through a glass filter (GF/B, Whatman, U.S.A.) to stop the reaction. After washing three times with 250 μl of 50 mM Tris-HCl buffer (pH 7.4) containing 0.02% bovine serum albumin, the radioactivity remaining on the filter was measured with a gamma counter. Before use, the filter was immersed in 0.1% polyethyleneimine for 24 hours and air-dried. […]

[2] = tested on: transient cerebral ischemia in mongolian gerbils; experiment: Protective effect of cerebralischemia: survival ratio after bilateral common carotid occlusion and reperfusion in gerbils; format: in vivo, mongolian gerbil; conditions: Meriones unguiculatus; 5 mg/kg, ip; 30 min before occlusion and 90 min after reperfusion; estimated 8 hr after reperfusion; control 0; read-out: Survival ratio
Method: Test Example 1 Protective effect of cerebralischemia
Male mongolian gerbils (Seiwa/8-10 wks) (n=8-10) were used. Bilateral common carotid arteries were occluded after the incision of the center of the neck under ether anesthesia. Global cerebral ischemia was induced by the occlusion of bilateral common carotid arteries (15 minutes), and after that these arteries were reperfused. Test sample was administered intraperiatonelly 30 minutes before occlusion and 90 minutes after reperfusion. In the control group, vehicle (distilled water, saline or 5% gum arabic) was administered in the same fashion. Survival ratio was estimated at 8 hr after reperfusion (Table 2).

[3] = tested on: cytosolic free Ca^2+ in hippocampal neurons; experiment: Effect on cytosolic free Ca^2+ concentration in neurons (L-glutamic acid-induced [Ca^2+]i increase, fura-2); format: cell-based; conditions: Rattus norvegicus, Hippocampal neuron, L-Glu.-induced [Ca^2+]i increase
Method: Effect on cytosolic free Ca^2+ concentration in neurons
Neurons were harvested from hippocampi of 18-day-old rat embryos and cultured based on the method of Hatanaka and Tsukui (Developmental Brain Research, 30, 47-56, 1986). Hippocampal neurons suspended in Dulbecco's modified Eagle's medium were seeded on cover glass slides (10×20 mm, Matunami No. 1, Osaka, Japan) coated with poly-L-lysin at a density of 2.5×10^5 cells/slide and cultured for 7 days in humidified CO2 incubator (95% air/5% CO2) at 37° C. The neurons were washed 3 times with HEPES [N-(2-hydroxyethyl)piperazine-N'-2-ethanesulfonic acid]-buffered physiological salt solution (PSS) (140 mM NaCl, 5 mM KCl, 1 mMMgSO4, 1 mM Na2 HPO4, 1 mM CaCl2, 25 mM glucose, 25 mM HEPES, pH7.4), and then loaded with fura-2 acetoxymethyl ester (4 μM) in HEPES-buffered PSS for 60 min at 37° C. The cover glass slide coated with neurons, which were loaded with fura-2, was inserted into a cuvette that contained 2.5 ml HEPES-buffered PSS supplemented with 0.05% bovine serum albumin. Ca2+ -fura-2 fluorescence was measured with Hitachi F-2000 spectrofluorimeter by 340 nm and 380 nm for excitation and 505 nm for emission. Cytosolic free Ca^2+ concentration ([Ca^2+ ]i) values were calculated according to the method of Grynkiewicz et. al, (Journal of Biological Chemistry, 260, 3440-3450, 1985). Neurons were treated with example-compounds 5 min before the addition of L-glutamic acid (L-Glu.).
L-Glu. leads to two phases-increase of [Ca^2+ ]i in neurons. The first increase of [Ca^2+ ]i is caused by the release from cellular Ca^2+ stores and the influx of extracellular Ca^2+. The second one is caused by the influx of extracellular Ca^2+. The effect of the drug on these two phases-increase of [Ca^2+ ]i was examined and the 50% inhibitory dose (IC50) was calculated.

[4] = tested on: brain edema in male wistar rats; experiment: Anti-brain edema effect (middle cerebral arterial occlusion and reperfusion model); format: in vivo, rat (wistar); conditions: 10 mg/kg(ip) × 7, rat, 3rd day after reperfusion, * p < 0.05
Text: Test Example 2 Anti-brain edema effect (middle cerebral arterial occlusion and reperfusion model)
Male wistar rats (Jcl:9wks) were anesthetized with inhalation of halothane (2-bromo-2-chloro-1,1,1-trifluoroethane). After the incision of neck, bilateral common carotid arteries were […] an embolized needle (diameter 0.3 mm, length 26 mm nylon thread) was inserted into the left internal carotid artery through external carotid artery and, simultaneously, the bilateral common carotid arteries were occluded by the Sugita's aneurysm clips. The embolized needle and the clips were removed out 30 minutes after occlusion. Test sample was administered immediately and 5 hr after reperfusion on the operated day, twice a day on the 1st and 2nd day, and 1 hr before removing the brain on the 3rd day (total 7 times), intraperiatonelly. In the control group, vehicle (distilled water, saline or 5% gum arabic) was administered in the same fasion. Brain edema on the 3rd day after reperfusion was estimated from the content of water, potassium and sodium in cerebral cortex and striatum. Water content was calculated from the ratio of dried brain weight and wet brain weight [(1-dried weight/wet weight)×100%]. The contents of pottasium and sodium were measured using the solution extracted from dried brain tissue with 14% nitric acid by the method of the framephotometer (Table 3).

**Q.** How did the pIC50 [1] turn out when `Cc1cc2c(-c3ccccc3)c(CN(C)C(=O)c3cc(C(F)(F)F)cc(C(F)(F)F)c3)n(C)c(=O)c2cc1C` [Example 36, 3,5-Bis(trifluoromethyl)-N-[(1,2-dihydro-2,6,7-trimethyl-1-oxo-4-phenylisoquinolin-3-yl)methyl]-N-methylbenzamide] was run?
**A.** 7.33

**Q.** `CN(Cc1c(-c2ccccc2)c2cc(Cl)ccc2c(=O)n1C)C(=O)c1cc(C(F)(F)F)cc(C(F)(F)F)c1` [Example 38, 3,5-Bis(trifluoromethyl)-N-[(6-chloro-1,2-dihydro-2-methyl-1-oxo-4-phenylisoquinolin-3-yl)methyl]-N-methylbenzamide] was tested. Which pIC50 [1] did it give?
**A.** 7.14

**Q.** Which results are given for `CC(C)Oc1cccc(NC(=O)NCc2c(-c3ccccc3)c3cc(Cl)ccc3c(=O)n2C)c1` [Example 1, N-[(6-Chloro-1,2-dihydro-2-methyl-1-oxo-4-phenylisoquinolin-3-yl)methyl]-N'-(3isopropoxyphenyl)urea]?
**A.** responders at 5 mg/kg [2]: 88%; pIC50 ([3]; with EGTA, 1st phase (release from cellular Ca^2+ stores), read-out: IC50 with EGTA, 1st Phase): 7.16; pIC50 ([3]; without EGTA, 1st phase, read-out: IC50 without EGTA, 1st Phase): 5.52; pIC50 ([3]; without EGTA, 2nd phase, read-out: IC50 without EGTA, 2nd Phase): < 5.00; H2O (water content of brain) ([4]; control 81.27 (Example 1), 80.94 (Example 15(HCl))): 80.12 ± 0.32%; Na (sodium content of brain) ([4]; control 405 (Example 1), 371 (Example 15(HCl))): 322 ± 24 mEq/kg; K (potassium content of brain) ([4]; control 430 (Example 1), 440 (Example 15(HCl))): 471 ± 13 mEq/kg

**Q.** How did the pIC50 [1] turn out when `CN(Cc1c(-c2ccccc2)c2ccccc2c(=O)n1C)C(=O)c1cc(C(F)(F)F)cc(C(F)(F)F)c1` [Example 37, 3,5-Bis(trifluoromethyl)-N-[(1,2-dihydro-2-methyl-1-oxo-4-phenylisoquinolin-3-yl)methyl]-N-methyl benzamide] was run?
**A.** 9.00
